Key:
[1] = test system: γH2AX foci in RPE-1 cells; experiment: microscopic analysis of damage-induced subnuclear foci, RPE-1 cells; assay type: cell-based, human
Procedure: To assess the number of nuclear foci following cisplatin/inhibitor treatments, cells were plated in glass bottom dishes (as above) and allowed to attach. Following treatment, cells were fixed with 4% (v/v) formaldehyde in PBS, blocked with immunofluoresence (IF) blocking buffer (5% horse serum, 1% saponin in PBS) for 1 h, then incubated with primary antibodies at the desired concentrations in IF blocking buffer (overnight, 4 °C).
Images were imported into ImageJ and foci were counted using a macro adjusting for staining levels between experiments. Anti-γH2AX antibodies were a mouse monoclonal (Millipore; JBW301).

[2] = molecular target: T1, SNM1A (Homo sapiens, UniProt Q6PJP8); experiment: real-time fluorescence-based nuclease assay, SNM1A; assay type: biochemical; design: DNA encoding for the MBL and β-CASP domains of SNM1A (aa 676–1040) was cloned into the baculovirus transfer vector pFB-LIC-Bse; inferred from vector pFB-LIC-Bse and the IMAC purification; made in house; host or cells: Sf9 insect cells (baculovirus); details: SNM1A IC50, real-time fluorescence-based nuclease assay; resynthesised compounds
T1 sequence (Q6PJP8 676-1040): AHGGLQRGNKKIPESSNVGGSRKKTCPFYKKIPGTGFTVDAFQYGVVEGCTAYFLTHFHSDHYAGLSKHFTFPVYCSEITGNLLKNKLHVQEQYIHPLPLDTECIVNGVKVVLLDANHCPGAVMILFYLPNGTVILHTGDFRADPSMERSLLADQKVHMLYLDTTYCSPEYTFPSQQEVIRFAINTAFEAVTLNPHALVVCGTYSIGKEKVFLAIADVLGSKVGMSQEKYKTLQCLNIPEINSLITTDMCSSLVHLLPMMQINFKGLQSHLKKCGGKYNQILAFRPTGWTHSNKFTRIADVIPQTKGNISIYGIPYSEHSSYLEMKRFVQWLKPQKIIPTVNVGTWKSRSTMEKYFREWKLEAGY
Procedure: In brief, the fluorescence-based nuclease assay utilises a chemically modified 20-nucleotide ssDNA substrate with a fluorescein isothiocyanate (FITC) derived 5′-group and an internal black-hole-quencher-1 (BHQ-1), located eight nucleotides distal to the fluorescein group. In the intact substrate the BHQ-1 suppresses fluorescence, however, exonucleolytic digestion of the substrate from the 5′ end by SNM1A uncouples the BHQ-1 and FITC moieties (see Fig. 1D). Spectra were measured every 140 seconds with an increase in fluorescence indicating enzymatic activity by SNM1A (concentration: 0.1 nM).
Fluorescence-based nuclease digestion SNM1A–C assays were performed as described.[30,45] In the case of SNM1A and SNM1B, a 20-mer oligonucleotide with a 5′ FITC-conjugated-T and an internal BHQ-1 (black hole quencher) conjugated-T, eight nucleotides distal (3′) to the fluor was utilised; whereas for SNM1C a 20-mer oligonucleotide with a 5′ FITC-conjugated-T and a 3′ BHQ-1(black hole quencher) was used to capture all possible endonucleolytic incisions. Reactions (25 μL) were performed in 384 well microplates in nuclease buffer (20 mM HEPES-KOH pH 7.5, 50 mM KCl, 10 mM MgCl2, 0.5 mM TCEP, 0.05% (v/v) Triton-X, 0.1 mg mL^−1 BSA, 5% (v/v) glycerol) with SNM1A/B/C (0.1 nM SNM1A, 0.5 nM SNM1B and 1 nM SNM1C) as indicated. Proteins were incubated for 10 min at RT with the stated compound where applicable, before the reaction was initiated with the addition of 10 nM DNA substrate. […] Fluorescence spectra were measured every 140 s, for 35 min, at 37 °C. The fluorescence intensity of each well was plotted against compound concentration and fitted using a log (inhibitor) response curve using GraphPad Prism software (GraphPad Software, Inc., La Jolla, CA, USA).

## C[C@H](Nc1nc(NCc2ccco2)nc2ccc(Cl)cc12)C(=O)NO [compound 19]
[1]; RPE-1, cisplatin treated with 50 μM 19
  average γH2AX foci count at 24 hours: 21.2 ± 0.7 foci
[1]; RPE-1, cisplatin treated, 24 hours
  increase of average γH2AX foci count following pretreatment: 2 fold
[2]
  IC50: 44 µM
